Patent publication US20230414637A1 (priority 2020, published 2023)
In brackets after ≈: the same amount, converted by molar mass. Several values for one entry are separate records, joined by “and”; a condition that tells them apart may be missing. Identical values can stand only once. Like-named read-outs stand apart in the source and are kept apart here.

Key:
[1] = Dissolution of niclosamide solvates (water precipitate, acetone and ethanol recrystallized) at pH 9.3; conditions: pH 9.3
Description: To start to evaluate the various expected polymorphs and to try and obtain a morphology that was perhaps like the purchased materials (of unknown processing), three samples were made i.e., the “water-hydrate” precipitated from ethanol into excess water and two that were recrystallized from acetone and from ethanol.
It was filtered on a sintered glass filter, washed three times with deionized water, and dried. The material was ground by mortar and pestle ready for the dissolution test and viewed microscopically to evaluate its crystal morphology.
Each material was also viewed microscopically to evaluate their crystal morphologies.
Dissolution of the solvates. […] 2 uL aliquots were taken directly from the stirred solution in the 20 mL scintillation vial at appropriate time intervals and absorbance at 333 nm was measured by nanodrop spectrophotometer.

[2] = Equilibrium dissolution of AK Sci niclosamide versus pH (supernatant concentration by UV/Vis at 333 nm); conditions: for Average [Nic] (uM) UV/Vis, 333 nm), supernatant concentration: 20° C.
[3] = type: physicochemical
Description: pH=pKa+Log10[Nic−ve]/[NicOH] Eqn 1
pHp=pKa+log(S−So)/So Eqn 4
So=the molar intrinsic solubility of the undissociated acid (NicOH), and S=the molar concentration of the salt form initially added.

[4] = same pH as Yomesan extraction (pH 9.3)
SARS-COV-2 syncytia = conditions: Braga et al [18]; cited from earlier work
physchem [5] = conditions: 20 °C, pH 9.5, aqueous buffer, kinetic from dmso stock
[6] = tested on: SARS-CoV-2 in Huh-7 cells; conditions: infected liver Huh-7 cells, Mirabelli et al [60]; cited from earlier work
Vero E6 cells = conditions: cited from earlier work
[7] = cited from earlier work
physchem [8] = assay: physchem
[9] = Supersaturated solution precipitation of niclosamide: amount in solution
[10] = tested on: human airway epithelial cells; conditions: 300 uM
physchem [11] = assay: physchem; remark: listed apart in the source
Protocol: The pKa is defined as the negative base-10 logarithm of the acid dissociation constant (Ka) of a solution). It is an important parameter to consider here because pKa and pH are equal when half of the acid has dissociated. […] Once the pKa is measured (or estimated) the well-known Henderson-Hasselbalch equation calculates the fractions of each species.

[12] = tested on: human airway epithelial cells; assay: cells; conditions: Epithelial cell, read-out: IC50 for cell viability and ATP
in vitro = conditions: human
[13] = tested on: SARS-CoV-2 in Vero 6 cells; conditions: cited from earlier work
[14] = tested on: SARS-CoV-2 in Calu-3 cells; conditions: cited from earlier work
[15] = [11]; cited from earlier work
[16] = pH 7.09

For O=C(Nc1ccc([N+](=O)[O-])cc1Cl)c1cc(Cl)ccc1O [AK Sci Niclosamide], the “solubility (equilibrium supernatant concentration several days after dissolution)” value [1] was roughly 383 µM (≈ 125 µg/mL), the “Average [Nic] (uM) UV/Vis, 333 nm), supernatant concentration” value (“Average [Nic] (uM) UV/Vis” for short) ([2]; measured pH 3.64, stirred to equilibrium (48 hrs)) was 2.53 µM and the “Average [Nic] (uM) UV/Vis” value ([2]; measured pH 7.05, 48 hrs) was 8.68 µM. The “Average [Nic] (uM) UV/Vis” value ([2]; measured pH 7.64, 48 hrs) was 16.75 µM, the “Average [Nic] (uM) UV/Vis” value ([2]; measured pH 8.06, 48 hrs) was 25.83 µM and the “Average [Nic] (uM) UV/Vis” value ([2]; measured pH 8.26, 48 hrs) was 47.26 µM. The “Average [Nic] (uM) UV/Vis” value ([2]; measured pH 8.53, 48 hrs) was 83.31 µM, the “Average [Nic] (uM) UV/Vis” value ([2]; measured pH 8.75, 48 hrs) was 137.29 µM and the “Average [Nic] (uM) UV/Vis” value ([2]; measured pH 9.04, 48 hrs) was 215.66 µM. For the same compound, the “Average [Nic] (uM) UV/Vis” value ([2]; measured pH 9.22, 48 hrs) was 344.32 µM, the “Average [Nic] (uM) UV/Vis” value ([2]; measured pH 9.32, 48 hrs) was 382.68 µM and the “Average [Nic] (uM) UV/Vis” value ([2]; measured pH 9.4, 48 hrs) was 466.14 µM. The “Average [Nic] (uM) UV/Vis” value ([2]; measured pH 9.63, 48 hrs) was 703.26 µM, the “limiting (intrinsic) solubility So of the protonated acid” value ([2]; pH 3.66) was 2.53 µM and the “polymorph stability of excess powder in stirred buffer” value ([2]; stirred 24 hrs and longer, days, in presence of original powder) was “did not readily convert to the less soluble hydrates”. The “pKa fitted from pHp curve to supernatant concentration data” value ([3]; So 2.53 uM) was 7.12, the “supernatant concentration reached at 3 hrs” value (more efficient stirring, pH 9.5, nominal 1 mM, listed as AK Sci niclosamide) was 564 µM and the “fitted logarithmic dissolution rate, pre-ln factor” value (pH 8.62, nominal 1 mM, first hour) was 22. For the same compound, the “fitted logarithmic dissolution rate, pre-ln factor” value (pH 8.72, nominal 1 mM) was 24, the “fitted logarithmic dissolution rate, pre-ln factor” value (pH 9.06, nominal 1 mM) was 38 and the “initial rate of dissolution / extraction over first three minutes” value (pH 9.3 buffer) was 51.7 µM/min. For the same compound, the intrinsic dissolution rate (pH 9.3 buffer, converted from uM/min) was 0.28 µg/s, the “fitted logarithmic dissolution rate, pre-ln factor” value (pH 9.36, nominal 1 mM) was 71 and the “clear supernatant solution concentration” value [4] was 520 µM.

For O=C(Nc1ccc([N+](=O)[O-])cc1Cl)c1cc(Cl)ccc1O [Niclosamide, 5-Chloro-N-(2-chloro-4-nitrophenyl)-2-hydroxybenzamide], the “effect on syncytia in vitro” value (SARS-COV-2 syncytia) is listed as “protected against syncytia in vitro”, the solubility kinetic (physchem [5]) is listed as 3000 µM (≈ 981 µg/mL) and the IC50 [6] is listed as 140 nM. The CC50 (Vero E6 cells) was 205000 nM, the “concentration to which host cell viability extended” value (Vero E6 cells) was greater than 100 µM and the solubility ([7]; pH 6.4) was 1.6 µg/mL (≈ 4.89 µM). For the same compound, the solubility ([7]; pH 9.1) was 110 µg/mL (≈ 336 µM), the “amount of niclosamide in solution” value ([2]; pH 6-7 (tap water, saliva)) was roughly 2 µM and the “conversion of added powder at high pH” value ([2]; pH 9.7, 10.0 and 10.45 carbonate-bicarbonate buffer, 1 hr stirring) was “converted to red crystalline micro-crystals”. The solubility (physchem [8]; pH 6.4, aqueous buffer) was 4.89 µM (≈ 1.6 µg/mL), the solubility (physchem [8]; pH 9.1, aqueous buffer) was 336 µM (≈ 110 µg/mL) and the “pH at which a 30 uM niclosamide solution can be made” value ([3]; data and pHp theory) was 8.16. For the same compound, the “pH at which a 50 uM niclosamide solution can be made” value ([3]; data and pHp theory) was 8.39, the “pH at which a 200 uM niclosamide solution can be made” value ([3]; data and pHp theory) was 9.01 and 8.92 and the “pH at which a 300 uM niclosamide solution can be made” value ([3]; data and pHp theory) was 9.19 and 9.10. For the same compound, the “pH at which a 20 uM niclosamide solution can be made” value ([3]; data and pHp theory, pKa 7.12, So 2.53 uM) was 7.96 and 7.98, the “factor of increase of fitted logarithmic dissolution rate” value (over pH range 8.62 to 9.44, nominal 0.5 mM-1 mM) was “over 3 ×” and the “fitted logarithmic dissolution rate, factor of ln(x)” value (pH 9.44 buffer, more optimized (standardized) stirring) was 94. For the same compound, the supersaturation ([9]; pH 9.5, 3 mM/200 μM) was roughly 15 times, the “airway epithelial cells still alive upon washout” value [10] was 17% and the cell death ([10]; 6 hr) was 83%. For the same compound, the pKa (physchem [11]) was 6.52, the IC50 [12] was 20000 to 30000 nM and the viability at 300 uM (in vitro) was 30%. For the same compound, the IC50 ([13]; Vero 6 cells, Braga et al [18], read-out: IC50 for viral replication) was 340 nM, the “concentration to completely prevent viral replication” value ([13]; Vero 6 cells, Brunaugh et al [91], including purported enhancement by lysozyme) was 0.4 µM and the “IC100, complete inhibition of viral replication” value ([13]; Vero 6 cells, Jeon et al [14]) was 1 µM. The IC50 ([13]; Vero 6 cells, Jeon et al [14], read-out: IC50 for viral replication) was 280 nM, the IC50 ([13]; Vero E6 cells, Mostafa et al [29], read-out: IC50 for inhibiting viral replication) was 160 nM and the “IC100 for inhibiting viral replication (estimated from graph)” value ([14]; Calu-3 cells, Ko et al [34]) was 2 to 3 µM. For the same compound, the IC50 ([14]; Calu-3 cells, Ko et al [34], read-out: IC50 for viral replication) was 840 nM, the “effect on viral replication” value ([14]; respiratory Calu-3 cells, 2.5 uM, Braga et al [18]) was “showed inhibition of viral replication” and the acute oral toxicity [15] was greater than 1000 mg/kg.

For O=C(Nc1ccc([N+](=O)[O-])cc1Cl)c1cc(Cl)ccc1O [precipitated material], the “solubility of material precipitated in situ from supersaturated solution” value ([9]; pH 9.3, equilibrated) was 180.9 µM.

With O.O=C(Nc1ccc([N+](=O)[O-])cc1Cl)c1cc(Cl)ccc1O [presumed monohydrate] the solubility [16] was 1.24 µM and the “expected concentration in solution from pHp model” value ([3]; pH 6) was 1 uM.
